Experimental data reported in US20120316169A1, “2-ARYL-PROPIONAMIDE DERIVATIVES USEFUL AS BRADYKININ RECEPTOR ANTAGONISTS AND PHARMACEUTICAL COMPOSITIONS CONTAINING THEM” (DOMPÉ S.P.A., priority 2009, published 2012).

What follows are compounds tested against T1, BKB1 receptors (Homo sapiens, UniProt P46663) (assay: Calcium mobilization assay (FLIPR), B1 receptors in IMR-90 cells). Conditions: Human IMR-90 lung fibroblast cells, up-regulated BKB1 receptors, agonist desArg10-kallidin (DAKD) 2 to 8 nM, calcium-dependent fluorescence.
T1 construct: Human (IMR-90) lung fibroblast cells expressing native B1 receptors; endogenous in cells; host or cells: IMR-90 human lung fibroblasts, interleukin-treated to up-regulate BKB1 receptors
T1 sequence (P46663 1-353): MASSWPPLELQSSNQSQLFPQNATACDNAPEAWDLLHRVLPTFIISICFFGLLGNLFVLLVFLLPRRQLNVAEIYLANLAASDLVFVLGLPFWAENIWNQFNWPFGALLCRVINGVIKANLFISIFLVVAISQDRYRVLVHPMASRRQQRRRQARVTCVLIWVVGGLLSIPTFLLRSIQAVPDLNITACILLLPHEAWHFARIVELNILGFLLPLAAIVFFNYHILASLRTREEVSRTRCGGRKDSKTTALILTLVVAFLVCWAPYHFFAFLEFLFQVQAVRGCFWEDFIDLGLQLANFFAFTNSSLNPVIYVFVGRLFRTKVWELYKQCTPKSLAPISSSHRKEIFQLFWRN
Type: cell-based
Description: Calcium mobilization assay (FLIPR)—Human (IMR-90) lung fibroblast cells expressing native B1 receptors were harvested by trypsinization and seeded into black wall/clear bottom 96-well plates (Costar 3904; Corning Life Sciences, Acton, Mass.) at approximately 13,000 cells/well. After 1 day incubation, cells were treated with […] (0.35 ng/ml) in 10% FBS/MEM for 2 h to up-regulate BKB1 receptors. Induced cells were loaded with fluorescent calcium indicator by incubation with 2.3 μM Fluo-4/acetoxymethyl ester (Invitrogen) at 37° C. for 1.5 h in the presence of an anion transport inhibitor (2.5 mM probenecid in 1% FBS/MEM). Extracellular dye was removed by washing with assay buffer (2.5 mM probenecid, 0.1% BSA in 20 mM HEPES/HBSS without bicarbonate or phenol red, pH 7.5) and cell plates were kept in the dark until used. Test compounds were assayed at eight concentrations in triplicate. Addition of test compounds to the cell plate and incubation for 5 min at 35° C., followed by the addition of 2 to 8 nM final BK1 agonist desArg^10-kallidin (DAKD, 3×EC50) was carried out in the fluorimetric imaging plate reader (FLIPR; Molecular Devices) while continuously monitoring calcium-dependent fluorescence.

SMILES	IC50
CC(F)(C(N)=O)c1ccc(OS(=O)(=O)C(F)(F)F)cc1 (centres unmarked) [Compound 1, 4-(1-amino-2-fluoro-1-oxopropan-2-yl)phenyl trifluoromethanesulfonate]	6.46 µM
Cc1ccnn1CCNC(=O)C(C)(F)c1ccc(OS(=O)(=O)C(F)(F)F)cc1 (centres unmarked) [Compound 2, 4-(2-fluoro-1-{[2-(5-methyl-1H-pyrazol-1-yl)ethyl]amino}-1-oxopropan-2-yl)phenyl trifluoromethanesulfonate]	6.17 µM
CC(F)(C(=O)NCCNc1ccccn1)c1ccc(OS(=O)(=O)C(F)(F)F)cc1 (centres unmarked) [Compound 3, 4-(2-fluoro-1-oxo-1-{[2-(pyridin-2-ylamino)ethyl]amino}propan-2-yl)phenyl trifluoromethanesulfonate]	13.2 µM
CC(F)(C(=O)Nc1ccsc1S(N)(=O)=O)c1cccc(Nc2nc(C(F)(F)F)cs2)c1 (centres unmarked) [Compound 4, 2-fluoro-N-(2-sulfamoylthiophen-3-yl)-2-(3-{[4-(trifluoromethyl)-1,3-thiazol-2-yl]amino}phenyl)propanamide]	4.27 µM
CC(F)(C(=O)Nc1ccccc1S(N)(=O)=O)c1cccc(Nc2nc(C(F)(F)F)cs2)c1 (centres unmarked) [Compound 5, 2-fluoro-N-(2-sulfamoylphenyl)-2-(3-{[4-(trifluoromethyl)-1,3-thiazol-2-yl]amino}phenyl)propanamide]	8.71 µM
CC(C)(C)NC(=O)CNC(=O)C(C)(C)c1ccc(OS(=O)(=O)C(F)(F)F)cc1 [Compound 6, 4-(2-methyl-1-{[2-(tert-butylamino)-2-oxoethyl]amino}-1-oxopropan-2-yl)phenyl trifluoromethanesulfonate]	17.8 µM
CC(C)(C(=O)NCCc1ccncc1)c1ccc(OS(=O)(=O)C(F)(F)F)cc1 [Compound 7, 4-(2-methyl-1-oxo-1-{[2-(pyridin-4-yl)ethyl]amino}propan-2-yl)phenyl trifluoromethanesulfonate]	11.5 µM
CCn1cc(NC(=O)C(C)c2ccc(C(=O)c3ccccc3)s2)c(C)n1 (centres unmarked) [Compound 8, N-(1-ethyl-3-methyl-1H-pyrazol-4-yl)-2-[5-(phenylcarbonyl)thiophen-2-yl]propanamide]	2.63 µM
COc1cccc(Nc2ccc(C(C)C(=O)NC3CCN(Cc4ccccc4)CC3)cc2)c1 (centres unmarked) [Compound 9, 2-{4-[(3-methoxyphenyl)amino]phenyl}-N-(1-benzylpiperidin-4-yl)propanamide]	7.76 µM
COc1cccc(Nc2ccc(C(C)C(=O)Nc3cc(C)nn3C)cc2)c1 (centres unmarked) [Compound 10]	7.94 µM
Cc1cc(NC(=O)C(C)c2cccc(Oc3cccc(F)c3)c2)n(C)n1 (centres unmarked) [Compound 11, N-(1,3-dimethyl-1H-pyrazol-5-yl)-2-[3-(3-fluorophenoxy)phenyl]propanamide]	11.2 µM
CC(C(=O)NCCNc1ccccc1)c1cccc(Oc2cccc(F)c2)c1 (centres unmarked) [Compound 12, 2-[3-(3-fluorophenoxy)phenyl]-N-[2-(phenylamino)ethyl]propanamide]	7.24 µM
CC(C(=O)Nc1ccncn1)c1cccc(NC2CC2)c1 (centres unmarked) [Compound 14, 2-[3-(cyclopropylamino)phenyl]-N-(pyrimidin-4-yl)propanamide]	6.31 µM
CC(C(=O)Nc1ccncn1)c1cccc(Nc2ccc(N3CCOCC3)cc2)c1 (centres unmarked) [Compound 15, 2-(3-{[4-(morpholin-4-yl)phenyl]amino}phenyl)N-(pyrimidin-4-yl)propanamide]	9.12 µM
Cc1ccc(Cl)c(Nc2ccc(C(C)C(=O)NCCN3CCOCC3)cc2)c1Cl (centres unmarked) [Compound 16, 2-{4-[(2,6-dichloro-3-methylphenyl)amino]phenyl}-N-[2-(morpholin-4-yl)ethyl]propanamide]	12 µM
CC(C(=O)NCC(C)(C)N)c1cccc(Oc2cccc(OC(F)(F)F)c2)c1 (centres unmarked) [Compound 18]	2.09 µM
CC(C(=O)NCCN1CCCC1)c1cccc(Oc2cccc(OC(F)(F)F)c2)c1 (centres unmarked) [Compound 19, N-[(2-pyrrolidin-1-yl)ethyl]-2-{3-[3-(trifluoromethoxy)phenoxy]phenyl}propanamide]	7.76 µM
CC(C(=O)NCCOc1ccc(F)cc1)c1cccc(OS(=O)(=O)C(F)(F)F)c1 (centres unmarked) [Compound 20, 3-(1-{[2-(4-fluorophenoxy)ethyl]amino}-1-oxopropan-2-yl)phenyl trifluoromethanesulfonate]	16.6 µM
CC(C(=O)Nc1nc(C(C)(C)C)cs1)c1ccc(NS(=O)(=O)C(C)C)cc1 (centres unmarked) [Compound 21, 2-{4-[(propan-2-ylsulfonyl)amino]phenyl}-N-(4-tert-butyl-1,3-thiazol-2-yl)propanamide]	9.12 µM

SMILES	IC50
COc1cccc(CN(C)CCNC(=O)C(C)c2ccc(NS(=O)(=O)C(C)C)cc2)c1 (centres unmarked) [Compound 22]	8.13 µM
C=C(C)CNC(=O)C(C)c1cccc(C(=O)c2cccs2)c1 (centres unmarked) [Compound 23, N-(2-methylprop-2-en-1-yl)-2-[3-(thiophen-2-ylcarbonyl)phenyl]propanamide]	21.9 µM
Cc1cc(NC(=O)C(C)c2cccc(C(=O)c3cccs3)c2)n(C)n1 (centres unmarked) [Compound 24, N-(1,3-dimethyl-1H-pyrazol-5-yl)-2-[3-(thiophen-2-ylcarbonyl)phenyl]propanamide]	7.41 µM
COc1cccc(Nc2ccc(C(C)C(=O)Nc3cc(C)nn3C)cc2)c1OC (centres unmarked) [Compound 25, 2-{4-[(2,3-dimethoxyphenyl)amino]phenyl}-N-(1,3-dimethyl-1H-pyrazol-5-yl)propanamide]	3.09 µM
COc1cccc(Nc2ccc(C(C)C(=O)Nc3ccncn3)cc2)c1OC (centres unmarked) [Compound 26, 2-{4-[(2,3-dimethoxyphenyl)amino]phenyl}-N-(pyrimidin-4-yl)propanamide]	5.75 µM
CCCC/C=C/c1cccc(C(C)C(=O)NCCNC(C)C)c1 (centres unmarked) [Compound 27, 2-{3-[hex-1-en-1-yl]phenyl}-N-[2-(propan-2-ylamino)ethyl]propanamide]	8.51 µM
CCCC/C=C/c1cccc(C(C)C(=O)Nc2ccncn2)c1 (centres unmarked) [Compound 28, 2-{3-[hex-1-en-1-yl]phenyl}-N-(pyrimidin-4-yl)propanamide]	8.51 µM
CCc1cc(NC(=O)C(C)c2ccc(Nc3nc(C(F)(F)F)co3)cc2)[nH]n1 (centres unmarked) [Compound 29, N-(3-ethyl-1H-pyrazol-5-yl)-2-(4-{[4-(trifluoromethyl)-1,3-oxazol-2-yl]amino}phenyl)propanamide]	7.08 µM
CC(C(=O)NCC(=O)NC(C)(C)C)c1ccc(Nc2nc(C(F)(F)F)co2)cc1 (centres unmarked) [Compound 30, N-[2-(tert-butylamino)-2-oxoethyl]-2-(4-{[4-(trifluoromethyl)-1,3-oxazol-2-yl]amino}phenyl)propanamide]	7.76 µM
COc1cccc(CN(C)CCNC(=O)C(C)c2ccc(Nc3nc(C(F)(F)F)co3)cc2)c1 (centres unmarked) [Compound 31, N-{2-[(3-methoxybenzyl)(methyl)amino]ethyl}-2-(4-{[4-(trifluoromethyl)-1,3-oxazol-2-yl]amino}phenyl)propanamide]	7.76 µM
Cc1ccc(OCC(O)CNC(=O)C(C)c2ccc(Nc3nc(C(F)(F)F)co3)cc2)cc1C (centres unmarked) [Compound 32, N-[2-hydroxy-3-(3,4-dimethylphenoxy)propyl]-2-(4-{[4-(trifluoromethyl)-1,3-oxazol-2-yl]amino}phenyl)propanamide]	8.32 µM
CC(C(=O)Nc1nccs1)c1cccc(C(=O)c2ccccc2)c1 (centres unmarked) [Compound 33, 2-[3-(phenylcarbonyl)phenyl]-N-(1,3-thiazol-2-yl)propanamide]	10.2 µM
CC(C(=O)NC1CCCCC1)c1cccc(C(=O)c2ccccc2)c1 (centres unmarked) [Compound 34, N-cyclohexyl-2-[3-(phenylcarbonyl)phenyl]propanamide]	8.51 µM
CC(C(=O)Nc1ccccc1)c1cccc(C(=O)c2ccccc2)c1 (centres unmarked) [Compound 35, N-phenyl-2-[3-(phenylcarbonyl)phenyl]propanamide]	10 µM
Cc1cc(NC(=O)C(C)c2cccc(C(=O)c3ccccc3)c2)n(C)n1 (centres unmarked) [Compound 36, N-(1,3-dimethyl-1H-pyrazol-5-yl)-2-[3-(phenylcarbonyl)phenyl]propanamide]	9.77 µM
CC(C)Cc1ccc(C(C)C(=O)Nc2ccncc2)cc1 (centres unmarked) [Compound 37, 2-[4-(2-methylpropyl)phenyl]-N-(pyridin-4-yl)propanamide]	1.38 µM
CC(C)Cc1ccc(C(C)C(=O)NC(N)=O)cc1 (centres unmarked) [Compound 38, N-carbamoyl-2-[4-(2-methylpropyl)phenyl]propanamide]	20 µM
CC(C)Cc1ccc(C(C)C(=O)Nc2cc[n+](C)cn2)cc1 (centres unmarked) [Compound 39, 1-methyl-4-({2-[4-(2-methylpropyl)phenyl]propanoyl}amino)pyrimidin-1-ium iodide]	12.6 µM
Cc1cc(NC(=O)C(C)c2ccc(CC(C)C)cc2)n(C)n1 (centres unmarked) [Compound 40, N-(1,3-dimethyl-1H-pyrazol-5-yl)-2-[4-(2-methylpropyl)phenyl]propanamide]	2.09 µM
